# Assay results from paper PMC11189555, “Aryl amino acetamides prevent Plasmodium falciparum ring development via targeting the lipid-transfer protein PfSTART1” (Nature Communications, 2024).
# Where “and” joins values, the source holds several entries; their conditions need not be identical. Equal entries are not always repeated. Where two headings read alike, the source gives them in different places.
# Key:
# CR-N330K parasites = test: Growth inhibition assay (72 h, LDH activity); assay type: cell-based, Plasmodium falciparum; settings: for inhibition at 40 µM / inhibition at 0.00203221 µM / inhibition at 0.00609663 µM / inhibition at 0.0182899 µM / inhibition at 0.0548697 µM / inhibition at 0.164609 µM / inhibition at 0.493827 µM / inhibition at 1.48148 µM / inhibition at 4.44444 µM / inhibition at 13.3333 µM / EC50: Plasmodium falciparum; for inhibition at 40 µM / inhibition at 0.00203221 µM / inhibition at 0.00609663 µM / inhibition at 0.0182899 µM / inhibition at 0.0548697 µM / inhibition at 0.164609 µM / inhibition at 0.493827 µM / inhibition at 1.48148 µM / inhibition at 4.44444 µM / inhibition at 13.3333 µM: read-out: Growth inhibition assay, NORMALISED; for inhibition at 0.00203221 µM: conc 2.03221 nM; for inhibition at 0.00609663 µM: conc 6.09663 nM; for inhibition at 0.0182899 µM: conc 18.2899 nM; for inhibition at 0.0548697 µM: conc 54.8697 nM; for inhibition at 0.164609 µM: conc 164.609 nM; for inhibition at 0.493827 µM: conc 493.827 nM; for inhibition at 1.48148 µM: conc 1481.48 nM; for inhibition at 4.44444 µM: conc 4444.44 nM
# Description: (§1) Parasite growth assays with inhibitory compounds were performed as per[11] and are fully described in the Supplementary Information.
# (§2) Molecular biology and transfection of P. falciparum: CRISPR method.
# (§3) The full 5’ homology region of pfstart1 (either WT, N309K or N330K) was amplified from pPfSTART1-HA-2A-Neo-glmS with the same 5’ BglII primer and a new 3’ primer that replaced with PstI with SpeI and introduced a stop codon. The PCR product was then digested with BglII and SpeI and inserted into similarly digested p1.2 parasite vector2. The p1.2 vector had previously been inserted with a homology region amplified from the 3’ end of the pfstart1 gene (3’HB) to form a second homology block for double recombination. The primers used to amplify 3’HB are listed primers listed in […]
# (§4) 60 μg of p1.2-PfSTART1(WT/N309K/N330K) plasmid was linearised with KasI, precipitated in 3 M sodium acetate and ethanol (70% final concentration) overnight at -20°C. The DNA pellet was washed in cold 70% ethanol and resuspended in cytomix 3.
# (§5) 50 μ M of crRNA ( Table S 2) and 50 μM of tracRNA (Integrated DNA Technologies) were allowed to form a duplex (5 min at 95°C), and Cas9 enzyme (Integrated DNA Technologies) was added, and incubated for 20 min at room temperature 4. This crRNA -tracRNA -Cas9 mix was added to each DNA preparation and transfected to 3D7 ring parasites using the Bio -Rad Gene Pulser at 310 V and 950 μF.
# (§6) Parasites containing the transfected DNA were selected using 2.5 nM WR99210 (Jacobus). Parasites lines were cloned using limiting dilution. Correct integration was tested by PCR (using primer START_5’UTR.F and START_Int.R1 , Table S 2), and sequencing was done using the primers START_3F and START_Int.R2 (Table S 2).
# (§7) Growth inhibition assays. Synchronised ring-stage parasites (0.3-0.6% parasitemia, 2% haematocrit) were grown for 72 h in a serial-dilution of the compound under […]
# (§8) and compound 4. Note that M-833 was first purchased from MolPort (MolPort -002-267-916) then made in-house at WEHI: the differences observed in EC50s across experiments are attributed to the different batches of M -833. For some experiments, 0, 0.25 or 2.5 mM of glucosamine (GlcN) was also added. Experiments were set up in technical duplicates or triplicates. Following a freeze -thaw cycle, lactate dehydrogenase (LDH) activity was assessed as an indicator of parasite growt h 5. 30 μL of parasite culture was incubated for 30 min in the dark with 75 μL Malstat mixture (0.1 M Tris pH 9.0, 20 g/L lactic acid, pH 7.5, 0.2% Triton-X100, 0.5 g/L acetylpyridine adenine dinucleotide (APAD, Sigma), 200 μg/mL nitroblue tetrazolium (NBT; Sigma), 1 μg/mL phenozine ethosulfate (PES; Sigma)). Absorbance was then measured at 650 nm, transformed using the formula below, plotted against the logarithm of the concentrations, and a non-linear regression (log(inhibitor) vs. response, variable slope) was calculated using GraphPad Prism to assess the half-inhibitory […]
# (§9) Growth inhibition % = (1 − average(sample)− average(uRBC)) ∗ 100 […]
# (§10) The DMSO samples were also used to assess growth of parasite in the presence of 0.25 and 2.5 mM GlcN (normalised by DMSO in 0 mM GlcN).
# (§11) Egress, invasion & recovery assay. To measure egress, invasion and follow up recovery in the presence of different compounds, we adapted the method developed in6, using Hyp1-Nluc parasites7. These parasites episomally express the exported PEXEL protein Hyp1 (PF3D7_0113300) tagged with a NanoLuc luciferase (NLuc) and were selected with 2.5 nM WR99210 (Jacobus). Highly synchronised schizonts were obtained using ML10 (LifeArc) and sorbitol synchronisation, and Percoll-purified (the culture was gently layered over 67% Percoll (Cytiva) in RPMI, and centrifuged for 15 min at 1500 g and the schizont layer was collected and washed). In a 96-well plate, […]
# CR-N309K parasites = test: Growth inhibition assay (72 h, LDH activity); assay type: cell-based, Plasmodium falciparum
# Description: as §1, §2, §3, §4, §5, §6, §7, §8, §9, §10, §11
# [1] = 0.25 mM GlcN, M833 dilution point 1 of 10 (starting concentration 40 uM)
# [2] = 2.5 mM GlcN, M833 dilution point 1 of 10 (starting concentration 40 uM)
# [3] = 2.5 mM GlcN, M833 dilution point 2 of 10 from 40 uM start
# [4] = 2.5 mM GlcN, M833 dilution point 3 of 10 from 40 uM start
structure (smiles),measurement,setting,value
Cc1cc(Cl)c(S(=O)(=O)N2CCCC2)cc1OCC(=O)NC1CCCCC1 [M-833],effect of GlcN addition on EC50,CR-N330K parasites,did not impact the EC50
same,"Growth inhibition assay, NORMALISED","CR-N330K parasites; 0 mM GlcN, conc 13333.3 nM",83.0053 and 71.7328 and 58.9456
same,"Growth inhibition assay, NORMALISED","CR-N330K parasites; 0 mM GlcN, conc 40000 nM",89.2357 and 89.8575
same,"NORMALISED (growth inhibition, LDH absorbance vs DMSO and uRBC)",CR-N330K parasites; [1],90.8081 and 87.9797 and 87.1506
same,"NORMALISED (growth inhibition, LDH absorbance vs DMSO and uRBC)",CR-N330K parasites; [2],93.6897 and 84.3760 and 68.7638
same,"NORMALISED (growth inhibition, LDH absorbance vs DMSO and uRBC)",CR-N330K parasites; [3],66.9588 and 63.6686 and 78.5050
same,"NORMALISED (growth inhibition, LDH absorbance vs DMSO and uRBC)",CR-N330K parasites; [4],62.4014 and 35.5339 and 55.9192
same,fold resistance compared to CR-WT,CR-N330K parasites; Fig 2D,over 81 fold
same,inhibition at 40 µM,"CR-N330K parasites; 0 mM GlcN, conc 40000 nM",98.2%
same,inhibition at 0.00203221 µM,CR-N330K parasites; 0.25 mM GlcN,1.04%
same,inhibition at 0.00609663 µM,CR-N330K parasites; 0.25 mM GlcN,4.9%
same,inhibition at 0.0182899 µM,CR-N330K parasites; 0.25 mM GlcN,1.5%
same,inhibition at 0.0548697 µM,CR-N330K parasites; 0.25 mM GlcN,3.6%
same,inhibition at 0.164609 µM,CR-N330K parasites; 0.25 mM GlcN,-2.8%
same,inhibition at 0.493827 µM,CR-N330K parasites; 0.25 mM GlcN,5.89%
same,inhibition at 1.48148 µM,CR-N330K parasites; 0.25 mM GlcN,18.6%
same,inhibition at 4.44444 µM,CR-N330K parasites; 0.25 mM GlcN,54.4%
same,inhibition at 13.3333 µM,"CR-N330K parasites; 0.25 mM GlcN, conc 13333.3 nM",83.8%
same,inhibition at 40 µM,"CR-N330K parasites; 0.25 mM GlcN, conc 40000 nM",98.3%
same,inhibition at 0.00203221 µM,CR-N330K parasites; 2.5 mM GlcN,-48.3%
same,inhibition at 0.00609663 µM,CR-N330K parasites; 2.5 mM GlcN,-31%
same,inhibition at 0.0182899 µM,CR-N330K parasites; 2.5 mM GlcN,-30.8%
same,inhibition at 0.0548697 µM,CR-N330K parasites; 2.5 mM GlcN,-27.3%
same,inhibition at 0.164609 µM,CR-N330K parasites; 2.5 mM GlcN,-23.4%
same,inhibition at 0.493827 µM,CR-N330K parasites; 2.5 mM GlcN,-11.7%
same,inhibition at 1.48148 µM,CR-N330K parasites; 2.5 mM GlcN,13.1%
same,inhibition at 4.44444 µM,CR-N330K parasites; 2.5 mM GlcN,36.6%
same,inhibition at 13.3333 µM,"CR-N330K parasites; 2.5 mM GlcN, conc 13333.3 nM",32.3%
same,inhibition at 40 µM,"CR-N330K parasites; 2.5 mM GlcN, conc 40000 nM",94%
same,EC50,"CR-N330K parasites; 72 h, read-out: EC50 (95% confidence interval), Fig 2D, 72 h, n = 3",9.51 µM
same,EC50,"CR-N330K parasites; Fig 3F, 0 mM GlcN, n = 3, read-out: EC50 M-833 (95% confidence interval)",9.5 µM
same,EC50,"CR-N330K parasites; read-out: EC50 M-833 (95% confidence interval), Fig 3F, 0.25 mM GlcN, n = 3",8.92 µM
same,EC50,"CR-N330K parasites; read-out: EC50 M-833 (95% confidence interval), Fig 3F, 2.5 mM GlcN, n = 3",8.73 µM
same,"Growth inhibition assay, NORMALISED","CR-N309K parasites; 0 mM GlcN, conc 13333.3 nM",96.3035 and 81.5013
same,"Growth inhibition assay, NORMALISED","CR-N309K parasites; 0 mM GlcN, conc 40000 nM",90.3753
same,"NORMALISED (growth inhibition, LDH absorbance vs DMSO and uRBC)",CR-N309K parasites; [1],109.622 and 93.8958 and 89.0356
same,"NORMALISED (growth inhibition, LDH absorbance vs DMSO and uRBC)","CR-N309K parasites; 0.25 mM GlcN, M833 dilution point 2 of 10 from 40 uM start",100.45 and 85.8318 and 85.1660
same,"NORMALISED (growth inhibition, LDH absorbance vs DMSO and uRBC)","CR-N309K parasites; 0.25 mM GlcN, M833 dilution point 3 of 10 from 40 uM start",91.9964 and 60.0606 and 52.4793
same,"NORMALISED (growth inhibition, LDH absorbance vs DMSO and uRBC)",CR-N309K parasites; [2],151.073 and 87.1969 and 79.8969
same,"NORMALISED (growth inhibition, LDH absorbance vs DMSO and uRBC)",CR-N309K parasites; [3],113.734 and 82.9449 and 82.5963
same,"NORMALISED (growth inhibition, LDH absorbance vs DMSO and uRBC)",CR-N309K parasites; [4],124.034 and 76.1318 and 75.9272
same,fold resistance compared to CR-WT,CR-N309K parasites; Fig 2D,over 81 fold
same,inhibition at 40 µM,"CR-N309K parasites; Plasmodium falciparum, 0 mM GlcN, conc 40000 nM, read-out: Growth inhibition assay, NORMALISED",107%
same,EC50,"CR-N309K parasites; Plasmodium falciparum, 72 h, read-out: EC50 (95% confidence interval), Fig 2D, 72 h, n = 3",4.03 µM
same,EC50,"CR-N309K parasites; Plasmodium falciparum, Fig 3F, 0 mM GlcN, n = 3, read-out: EC50 M-833 (95% confidence interval)",4 µM
same,EC50,"CR-N309K parasites; Plasmodium falciparum, read-out: EC50 M-833 (95% confidence interval), Fig 3F, 0.25 mM GlcN, n = 3",2.18 µM
same,EC50,"CR-N309K parasites; Plasmodium falciparum, read-out: EC50 M-833 (95% confidence interval), Fig 3F, 2.5 mM GlcN, n = 3",0.768 µM
same,fold reduction of EC50 on addition of 2.5 mM GlcN,CR-N309K parasites; not statistically significant,5.2 fold
